Reference: publication PMC9124818 (Pharmacology Research & Perspectives, 2022)
Where two headings read alike, the source gives them in different places.

Tests used:
OAT1 = molecular target: T1, OAT1 (Homo sapiens, UniProt Q4U2R8); assay: Transporter inhibition, uptake of [3H]-p-aminohippurate in HEK293 cells; assay type: in vitro ADME
T1 construct: host or cells: HEK293
T1 sequence (Q4U2R8 1-563): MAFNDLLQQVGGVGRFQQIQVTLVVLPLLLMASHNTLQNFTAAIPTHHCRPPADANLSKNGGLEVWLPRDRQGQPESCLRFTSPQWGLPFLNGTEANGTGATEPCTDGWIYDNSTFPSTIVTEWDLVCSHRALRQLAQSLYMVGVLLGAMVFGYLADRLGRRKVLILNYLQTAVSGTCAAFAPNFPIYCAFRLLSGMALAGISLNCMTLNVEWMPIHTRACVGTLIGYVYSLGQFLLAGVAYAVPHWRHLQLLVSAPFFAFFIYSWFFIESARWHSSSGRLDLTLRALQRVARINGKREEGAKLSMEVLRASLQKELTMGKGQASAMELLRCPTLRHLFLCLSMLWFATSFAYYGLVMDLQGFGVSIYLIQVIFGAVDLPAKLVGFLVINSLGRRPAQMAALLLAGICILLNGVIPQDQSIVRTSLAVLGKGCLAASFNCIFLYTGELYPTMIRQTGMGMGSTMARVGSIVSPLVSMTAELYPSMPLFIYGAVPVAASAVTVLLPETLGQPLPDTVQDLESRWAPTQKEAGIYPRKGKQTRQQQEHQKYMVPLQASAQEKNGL
Experimental: The test compound (FFA or nFFA) or the positive control substrate ([…], respectively) was added to the donor chamber. […] Cells were then washed, lysed with scintillation cocktail, and analyzed for the probe substrate with a MicroBeta scintillation counter (PerkinElmer, Hopkinton, MA). Transcellular transporter assay conditions are described in Supplemental Table 1. Calculation of IC50 values was based on bidirectional permeability of probe substrate with and without the inhibitor in MDCKII cells expressing BCRP and in Caco‐2 cells expressing P‐gp, and transporter‐dependent uptake of probe substrate in HEK293 cells expressing all other transporters (Supplemental Table 1).
The transporter-specific uptake of the probe substrate in cells was determined by subtracting the accumulation in the control cells from the accumulation in the transporter-expressing cells.

CYP3A4/5 = assay: Direct CYP450 inhibition in human liver microsomes (midazolam 1'-hydroxylation; testosterone 6β-hydroxylation); settings: for Basic model: R1: R1 = 1 + (Imax,u/Ki,u); for Basic model: R1,gut: R1,gut = 1 + (Igut/Ki,u)
Description: (§1) A mixed‐gender pool of 200 individual human liver microsomal samples was used.
(§2) This LIMS utilizes the Levenberg-Marquardt algorithm to perform nonlinear regression fitting of the data to the following 4-parameter sigmoidal-logistic IC50 equation:
(§3) As percent of control values are utilized, the Min is set to 0 and the Max is set to 100 (or other values, as appropriate). […] Therefore, when an IC50 value falls outside the concentration range studied, the IC50 values are reported to be greater than the highest concentrations of test article evaluated.

CYP1A2 = molecular target: T2, CYP1A2 (Homo sapiens, UniProt P05177); assay: Direct CYP450 inhibition in human liver microsomes (phenacetin O-dealkylation)
T2 sequence (P05177 1-516): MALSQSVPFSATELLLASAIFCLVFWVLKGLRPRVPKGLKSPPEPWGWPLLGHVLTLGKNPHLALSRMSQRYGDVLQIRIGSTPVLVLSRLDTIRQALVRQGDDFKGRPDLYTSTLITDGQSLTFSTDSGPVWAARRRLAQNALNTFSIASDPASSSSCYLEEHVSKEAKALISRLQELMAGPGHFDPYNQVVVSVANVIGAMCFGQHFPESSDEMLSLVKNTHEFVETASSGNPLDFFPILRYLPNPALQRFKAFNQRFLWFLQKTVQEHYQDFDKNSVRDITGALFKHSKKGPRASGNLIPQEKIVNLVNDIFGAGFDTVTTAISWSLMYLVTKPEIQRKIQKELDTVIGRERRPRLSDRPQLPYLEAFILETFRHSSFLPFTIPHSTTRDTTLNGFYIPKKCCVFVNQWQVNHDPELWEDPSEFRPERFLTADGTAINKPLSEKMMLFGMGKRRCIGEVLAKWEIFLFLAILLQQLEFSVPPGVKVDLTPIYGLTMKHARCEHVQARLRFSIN
Description: as §1, §2, §3

CYP2B6 mRNA = assay: CYP450 induction in cultured human hepatocytes, mRNA by qRT-PCR; assay type: cell-based; settings: for CYP2B6 induction (abstract): cultured human hepatocytes; for Fold‐change method: Fold change: highest dose tested (40 µM fenfluramine, 50 µM norfenfluramine); for Basic kinetic model: R3: per FDA Guidance (2020); for Fold‐change method: % of control: percent of positive control induction of mRNA; for Basic kinetic model: Emax (fold) / EC50 / EC50 at 3 days: ± standard error; for Basic kinetic model: Emax (fold): fit of fold‐change −1 values; for EC50 / EC50 at 3 days: read-out: Basic kinetic model: EC50; for EC50 at 3 days: human, cultured cryopreserved hepatocytes
Experimental: Cells were then harvested to isolate RNA, which was analyzed by quantitative reverse transcription‐polymerase chain reaction (qRT‐PCR) for induction of CYP1A2, CYP2B6, and CYP3A4 mRNA levels. Total RNA was phase extracted with TRIzol followed by purification with an RNeasy Mini Kit (Qiagen Inc., Germantown, MD). Quantitative PCR was performed in triplicate with a 7900HT Fast Real Time PCR System, an Applied Biosystems Universal Master Mix, and TaqMan® Gene Expression Assays. The quantity of target cDNA relative to control cDNA (GAPDH) was determined by the ΔΔCT method (Applied Biosystems User Bulletin #2). Relative quantitation measures the change in mRNA expression in a test sample relative to that in the control sample (i.e., DMSO). This method assumes that the efficiency of target amplification and the efficiency of endogenous control amplification are approximately equal.
mRNA assessment was conducted using a quantitative reverse transcription-polymerase chain reaction (qRT-PCR) according to the Applied Biosystems protocol. Each PCR was performed in triplicate. A Primer Mix was prepared for each Gene Expression assay. A typical Primer Mix contained TaqMan Fast Advanced Master Mix (1X), Gene Expression Assay (1X, 900 nM forward and reverse primers) and ribonuclease (RNase)-free water. The Reaction Mix was prepared by adding the Primer Mix to cDNA. A percentage of samples (no less than 10%) included NACs. […] The relative quantity of the target cDNA compared with that of the control cDNA (GAPDH) was determined by the ΔΔCt method (Applied Biosystems User Bulletin #2). Relative quantitation measures the change in mRNA expression in a test sample relative to that in a control sample (eg, dimethyl sulfoxide [DMSO]). This method assumes that the efficiency of the target amplification and the efficiency of the endogenous control amplification are approximately equal.
This software analyzes relative gene expression using the comparative Ct method (ΔΔCt), which relates the PCR signal of the target transcript to the PCR signal of the target in an untreated control. Both the treated sample and the untreated control signals are normalized to the endogenous control (GAPDH), for which expression is not affected by treatment and expression is constant throughout the tissue being tested.
The level of mRNA expression relative to the positive control was calculated as follows: […]

CYP450 enzymes = assay: Time- and metabolism-dependent CYP450 inhibition in human liver microsomes; assay type: in vitro ADME; settings: compared to direct inhibition

## CC(N)Cc1cccc(C(F)(F)F)c1.Cl (stereo not drawn) [nFFA, [1‐(3‐trifluoromethyl)phenyl]propan‐2‐amine hydrochloride]
OAT1; HEK293, probe [3H]-p-aminohippurate 1 μM, read-out: IC50
  IC50: > 50 µM
CYP3A4/5; direct inhibition, human liver microsomes, substrate midazolam
  IC50: > 100 µM
CYP3A4/5; direct inhibition, human liver microsomes, substrate testosterone
  IC50: > 100 µM
CYP3A4/5; substrate midazolam
  Basic model: Potential for clinical inhibition (R1): No (Potential to inhibit if R1 ≥ 1.02)
  Static mechanistic model: Potential for clinical inhibition: No (Potential to inhibit if AUCR ≥ 1.25)
CYP3A4/5; substrate testosterone
  Basic model: Potential for clinical inhibition (R1): No (Potential to inhibit if R1 ≥ 1.02)
  Static mechanistic model: Potential for clinical inhibition: No (Potential to inhibit if AUCR ≥ 1.25)
  Basic model: R1: 1.00
CYP1A2; direct inhibition, human liver microsomes, substrate phenacetin
  IC50: > 100 µM
CYP1A2; substrate phenacetin
  Basic model: Potential for clinical inhibition: No (Potential to inhibit if R1 ≥ 1.02)
  Static mechanistic model: Potential for clinical inhibition: No (Potential to inhibit if AUCR ≥ 1.25)
CYP2B6 mRNA
  CYP2B6 induction (abstract): up to 2.0 fold
CYP2B6 mRNA; hepatocytes HC7‐8
  Basic kinetic model: Potential to induce: No
  Fold‐change method: Potential to induce: Yes
  Static mechanistic model: Potential to induce: No (AUCR <0.8 to denote induction)
  Fold‐change method: Fold change: 2.15 fold
  Basic kinetic model: R3: 0.92
  Fold‐change method: % of control: 10.60%
  Basic kinetic model: Emax (fold): 1.14 ± 0.083 fold
  EC50: 10.8 ± 2.3 µM
CYP2B6 mRNA; hepatocytes HC10‐8
  Basic kinetic model: Potential to induce: No
  Fold‐change method: Potential to induce: Yes
  Static mechanistic model: Potential to induce: No (AUCR <0.8 to denote induction)
  Fold‐change method: Fold change: 3.01 fold
  Basic kinetic model: R3: 0.93
  Fold‐change method: % of control: 21.20%
  Basic kinetic model: Emax (fold): 2.08 ± 0.197 fold
  EC50: 26.4 ± 2.9 µM
CYP2B6 mRNA; hepatocytes HC10‐10
  Basic kinetic model: Potential to induce: No
  Fold‐change method: Potential to induce: Yes
  Static mechanistic model: Potential to induce: No (AUCR <0.8 to denote induction)
  Fold‐change method: Fold change: 2.54 fold
  Basic kinetic model: R3: 0.88
  Fold‐change method: % of control: 21.60%
  Basic kinetic model: Emax (fold): 1.36 ± 0.11 fold
  EC50: 8.81 ± 1.6 µM
CYP450 enzymes
  time- or metabolism-dependent inhibition of CYP450 enzyme activity: did not have any additional inhibitory effects

## CCNC(C)Cc1cccc(C(F)(F)F)c1 (racemic) [FFA, (RS)‐ethyl(α‐methyl‐3‐trifluoromethylphenethyl)amine, reference compound]
OAT1
  IC50: > 30 µM
CYP3A4/5; both, human, pooled human liver microsomes, pH 7.4, probe midazolam (1'-hydroxylation)
  IC50: > 600 µM
CYP3A4/5; both, human, pooled human liver microsomes, pH 7.4, probe testosterone (6β-hydroxylation)
  IC50: > 600 µM
CYP3A4/5; substrate midazolam
  Basic model: Potential for clinical inhibition (R1): No No ^b (Potential to inhibit if R1 ≥ 1.02)
  Basic model: Potential for clinical inhibition (R1,gut): No No ^b (Potential to inhibit if R1,gut ≥ 11)
  Static mechanistic model: Potential for clinical inhibition: No (Potential to inhibit if AUCR ≥ 1.25)
  Basic model: R1,gut: NC R1,gut = 1.78
CYP3A4/5; substrate testosterone
  Basic model: Potential for clinical inhibition (R1): No No ^b (Potential to inhibit if R1 ≥ 1.02)
  Basic model: Potential for clinical inhibition (R1,gut): No No ^b (Potential to inhibit if R1,gut ≥ 11)
  Static mechanistic model: Potential for clinical inhibition: No (Potential to inhibit if AUCR ≥ 1.25)
  Basic model: R1,gut: 1.81
  Basic model: R1: 1.00
CYP1A2
  IC50: > 60 µM
CYP1A2; substrate phenacetin
  Basic model: Potential for clinical inhibition: No (Potential to inhibit if R1 ≥ 1.02)
  Static mechanistic model: Potential for clinical inhibition: No (Potential to inhibit if AUCR ≥ 1.25)
CYP2B6 mRNA
  CYP2B6 induction (abstract): up to 2.8 fold
CYP2B6 mRNA; hepatocytes HC7‐8
  Basic kinetic model: Potential to induce: No
  Static mechanistic model: Potential to induce: No (AUCR <0.8 to denote induction)
  Basic kinetic model: R3: 0.87
CYP2B6 mRNA; hepatocytes HC10‐8
  Basic kinetic model: Potential to induce: Yes
  Static mechanistic model: Potential to induce: No (AUCR <0.8 to denote induction)
  Basic kinetic model: R3: 0.77
CYP2B6 mRNA; hepatocytes HC10‐10
  Basic kinetic model: Potential to induce: Yes
  Static mechanistic model: Potential to induce: No (AUCR <0.8 to denote induction)
  Basic kinetic model: R3: 0.76
CYP2B6 mRNA; lot HC7-8, hepatocytes HC7‐8
  EC50 at 3 days: 8.32 ± 2.1 µM
CYP2B6 mRNA; lot HC10-8, hepatocytes HC10‐8
  EC50 at 3 days: 13.6 ± 1.5 µM
CYP2B6 mRNA; lot HC10-10, hepatocytes HC10‐10
  EC50 at 3 days: 4.61 ± 3.3 µM
CYP450 enzymes
  time- or metabolism-dependent inhibition of CYP450 enzyme activity: did not have any additional inhibitory effects
